From the NIST ThermoML archive (doi:10.1016/j.jct.2012.01.022)
± gives the expanded uncertainty stated by the source.

Conditions: 298.15 K, 101.33 kPa, Liquid; for viscosity: Capillary tube (Ostwald / Ubbelohde) method; for speed of sound: Sing-around technique in a fixed-path interferometer; for mass density: Vibrating tube method

| viscosity [mPa·s] | speed of sound [m/s] | mass density [kg/m3] | SMILES |
| --- | --- | --- | --- |
| 11.19 ± 0.062 | 1379.8 ± 0.9 | 826.47 ± 0.14 | CCCCCCCCCCO [decan-1-ol] |
| 1.405 ± 0.012 | 1671.6 ± 1.3 | 892.389 ± 0.23 | NCCN [ethane-1,2-diamine] |
| 4.439 ± 0.042 | 1303.2 ± 1.7 | 815.265 ± 0.41 | CCCCCCO [hexan-1-ol] |
| 7.143 ± 0.041 | 1347.5 ± 0.9 | 821.794 ± 0.14 | CCCCCCCCO [octan-1-ol] |
